Consider 8 compounds from patent US20220267352A1, “RAPAMYCIN ANALOGS AND USES THEREOF” (Anakuria Therapeutics, Inc., priority 2021, published 2022).

Holding throughout (type): cell-based
One test relates to mTORC1 over mTORC2. In words: mTORC1 over mTORC2 selectivity by comparing pS6K1 and pAKT IC50. The conditions noted are these: by comparing pS6K1 and pAKT IC50, 90 min. Summed up:
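MCF-7 cells were treated with compounds (0.5% final DMSO) for 90 minutes in one protocol and 2 hours in the other, then lysed. Phospho-signal in lysates was read by bead-based donor/acceptor proximity assay. pS6K1 and pAKT IC50 values were compared to judge mTORC1 over mTORC2 selectivity, at 90 min and at 24 hrs.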

For test [1], the system named is p-p70 S6 Kinase (Thr389) in MCF-7 cells. In words: AlphaLISA Ultra pS6K1 assay. The note with it: Homo sapiens, 1.5 h; MCF7 cells, 90 min. Summed up: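 Phospho-S6K1 (Thr389) quantified by AlphaLISA Ultra read-out (2 h acceptor, then 2 h donor beads) in lysates of MCF-7 cells. Cells were plated 20–24 h before, refed 2 h, exposed to compounds for 90 min at 0.5% final DMSO, and lysates stored at −80 °C.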

Test [2] has as its system p-Akt 1/2/3 (Ser473) in MCF-7 cells. The test can be described thus: AlphaLISA Ultra pAKT assay. The conditions noted are these: Homo sapiens, 1.5 h; MCF7 cells, 90 min. Summed up: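 MCF-7 cells (16,000˜20,000 per well in 36 μL medium) were seeded in Corning 3701 plates for 20˜24 hour, refreshed with new medium for 90 minutes, then given 12 μL of 4× compound (0.5% final DMSO). Cells were lysed with 2× lysis buffer, and lysate was analyzed by AlphaLISA Ultra pAKT using acceptor and donor beads, read on an EnSpire reader.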

Bounds are passed on as bounds.

Consider `CO[C@@H]1/C(C)=C/[C@@H](C)C(=O)C[C@@H]([C@H](C)C[C@@H]2CC[C@@H](OC(F)F)[C@H](OC)C2)OC(=O)[C@@H]2CCCCN2C(=O)C(=O)[C@]2(O)O[C@@H](CC[C@H]2C)CC(OCC2COCCO2)/C(C)=C/C=C/C=C/[C@@H](C)C[C@@H](C)C(=O)[C@@H]1OC` (stereo partly drawn) [I-8, (25E,27E,29E,30E,33R,34S,35R,36R,38S,40S,43S,45R,46R,56R)-43-[(1R)-2-[(1S,3R,4R)-4-(difluoromethoxy)-3-methoxy-cyclohexyl]-1-methyl-ethyl]-42-(1,4-dioxan-2-ylmethoxy)-56-hydroxy-45,46-dimethoxy-33,34,35,36,47,48-hexamethyl-66,67-dioxa-57-azatricyclohexatriaconta-25,27,29(47),30(48)-tetraene-49,50,51,52,53-pentone], for which the “mTORC1 selective @ 90 min” value in the test with mTORC1 over mTORC2 was “Yes”. For the same compound, the IC50 in test [1] is 10 to 100 nM; in test [2] it was at least 1000 nM.
On to `CO[C@@H]1/C(C)=C/[C@@H](C)C(=O)C[C@@H]([C@H](C)C[C@@H]2CC[C@@H](O)[C@H](OC)C2)OC(=O)[C@@H]2CCCCN2C(=O)C(=O)[C@]2(O)O[C@@H](CC[C@H]2C)C[C@@H](OCCOC2COC2)/C(C)=C/C=C/C=C/[C@@H](C)C[C@@H](C)C(=O)[C@@H]1OC` [I-96], for which the “mTORC1 selective @ 90 min” value in the test with mTORC1 over mTORC2 is “No”. Besides, the IC50 in test [1] and in test [2] was at least 1000 nM in each case.
Take `CO[C@@H]1C[C@H](C[C@@H](C)[C@@H]2CC(=O)[C@H](C)/C=C(\C)[C@@H](O)[C@@H](OC)C(=O)[C@H](C)C[C@H](C)/C=C/C=C/C=C(\C)C(OCC3COCCO3)C[C@@H]3CC[C@@H](C)[C@@](O)(O3)C(=O)C(=O)N3CCCC[C@H]3C(=O)O2)CC[C@H]1OC(=O)N(C)CCN1CCOCC1` (stereo partly drawn) [I-99, [(40S,42R,44R)-4-[(2R)-2-[(27E,29E,31E,32E,36R,37S,38R,39R,41S,43S,45S,46S,47R,48R,58R)-47,58-dihydroxy-45,48-dimethoxy-36,37,38,39,49,50-hexamethyl-51,52,53,54,55-pentaoxo-71,72-dioxa-60-azatricyclohexatriaconta-27,29,31(49),32(50)-tetraen-46-yl]propyl]-44-methoxy-42-cyclohexyl]N-methyl-N-(2-morpholinoethyl)carbamate]: the “mTORC1 selective @ 90 min” value in the test on mTORC1 over mTORC2 is “Yes”. Moreover, the IC50 was 1 to 10 nM in test [1] and at least 1000 nM in test [2].
The like results for `COCCOCCO[C@@H]1C[C@@H]2CC[C@@H](C)[C@@](O)(O2)C(=O)C(=O)N2CCCC[C@H]2C(=O)O[C@H]([C@H](C)C[C@@H]2CC[C@@H](OC)[C@H](OC)C2)CC(=O)[C@H](C)/C=C(\C)[C@@H](OC)[C@@H](OC)C(=O)[C@H](C)C[C@H](C)/C=C/C=C/C=C/1C` [I-30, (24E,26E,28E,29E,35R,36S,37R,38R,40S,42S,44R,45S,46R,47R,56R)-45-[(1R)-2-[(1S,3R,4R)-3,4-dimethoxycyclohexyl]-1-methyl-ethyl]-56-hydroxy-46,47-dimethoxy-44-[2-(2-methoxyethoxy)ethoxy]-35,36,37,38,48,49-hexamethyl-64,65-dioxa-57-azatricyclohexatriaconta-24,26,28(48),29(49)-tetraene-50,51,52,53,54-pentone] were, in that order, “Yes”, 10 to 100 nM and at least 1000 nM.
For the compound `CO[C@@H]1/C(C)=C/[C@@H](C)C(=O)C[C@@H]([C@H](C)C[C@@H]2CC[C@@H](OCCCO)[C@H](OC)C2)OC(=O)[C@@H]2CCCCN2C(=O)C(=O)[C@]2(O)O[C@@H](CC[C@H]2C)C[C@@H](OCCOC2COC2)/C(C)=C/C=C/C=C/[C@@H](C)C[C@@H](C)C(=O)[C@@H]1OC` [I-44, (23E,25E,27E,28E,35R,36S,37R,38R,40S,42S,44R,45S,47R,48R,57R)-47,57-dihydroxy-45-[(1R)-2-[(1S,3R,4R)-4-(3-hydroxypropoxy)-3-methoxy-cyclohexyl]-1-methyl-ethyl]-48-methoxy-35,36,37,38,49,50-hexamethyl-44-[2-(oxetan-3-yloxy)ethoxy]-68,69-dioxa-58-azatricyclohexatriaconta-23,25,27(49),28(50)-tetraene-51,52,53,54,55-pentone], in the test on mTORC1 over mTORC2, the “mTORC1 selective @ 90 min” value is “Yes”. For the same compound, the results for the IC50 in test [1] and in test [2] were 1 to 10 nM and at least 1000 nM, respectively.
The like results for `CO[C@@H]1C[C@H](C[C@@H](C)[C@@H]2CC(=O)[C@H](C)/C=C(\C)[C@@H](O)[C@@H](OC)C(=O)[C@H](C)C[C@H](C)/C=C/C=C/C=C(\C)[C@H](OC[C@@H]3COCCO3)C[C@@H]3CC[C@@H](C)[C@@](O)(O3)C(=O)C(=O)N3CCCC[C@H]3C(=O)O2)CC[C@H]1OCCO` [I-84, (1R,9S,12S,15R,16E,18R,19R,21R,23S,24E,26E,28E,30R,32S,35R)-30-[[(2S)-1,4-dioxan-2-yl]methoxy]-1,18-dihydroxy-12-[(1R)-2-[(1S,3R,4R)-4-(2-hydroxyethoxy)-3-methoxy-cyclohexyl]-1-methyl-ethyl]-19-methoxy-15,17,21,23,29,35-hexamethyl-11,36-dioxa-4-azatricyclo[30.3.1.04,9]hexatriaconta-16,24,26,28-tetraene-2,3,10,14,20-pentone] were, in that order, “Yes”, 1 to 10 nM and at least 1000 nM.
On to `COCCO[C@@H]1CC[C@@H](C[C@@H](C)[C@@H]2CC(=O)[C@H](C)/C=C(\C)[C@@H](O)[C@@H](OC)C(=O)[C@H](C)C[C@H](C)/C=C/C=C/C=C(\C)C(OC[C@@H]3COCCO3)C[C@@H]3CC[C@@H](C)[C@@](O)(O3)C(=O)C(=O)N3CCCC[C@H]3C(=O)O2)C[C@H]1OC` (stereo partly drawn) [I-76, (1R,9S,12S,15R,16E,18R,19R,21R,23S,24E,26E,28E,32S,35R)-30-[[(2S)-1,4-dioxan-2-yl]methoxy]-1,18-dihydroxy-19-methoxy-12-[(1R)-2-[(1S,3R,4R)-3-methoxy-4-(2-methoxyethoxy)cyclohexyl]-1-methyl-ethyl]-15,17,21,23,29,35-hexamethyl-11,36-dioxa-4-azatricyclo[30.3.1.0^4,9]hexatriaconta-16,24,26,28-tetraene-2,3,10,14,20-pentone], for which the “mTORC1 selective @ 90 min” value in the test on mTORC1 over mTORC2 is recorded as “Yes”. Further, the IC50 is below 1 nM in test [1] and at least 1000 nM in test [2].
In the case of `CO[C@@H]1C[C@H](C[C@@H](C)[C@@H]2CC(=O)[C@H](C)/C=C(\C)[C@@H](O)[C@@H](OC)C(=O)[C@H](C)C[C@H](C)/C=C/C=C/C=C(\C)[C@H](OCC3COCCO3)C[C@@H]3CC[C@@H](C)[C@@](O)(O3)C(=O)C(=O)N3CCCC[C@H]3C(=O)O2)CC[C@H]1OCCCO` (stereo partly drawn) [I-92, (24E,26E,28E,29E,35R,36S,37R,38R,40S,42S,44R,45S,47R,48R,57R)-44-(1,4-dioxan-2-ylmethoxy)-47,57-dihydroxy-45-[(1R)-2-[(1S,3R,4R)-4-(3-hydroxypropoxy)-3-methoxy-cyclohexyl]-1-methyl-ethyl]-48-methoxy-35,36,37,38,49,50-hexamethyl-69,70-dioxa-58-azatricyclohexatriaconta-24,26,28(49),29(50)-tetraene-51,52,53,54,55-pentone], the “mTORC1 selective @ 90 min” value in the test with mTORC1 over mTORC2 was “Yes”. Moreover, the IC50 in test [1] was 10 to 100 nM; in test [2], at least 1000 nM.
